# ChEMBL document CHEMBL3132748, “Novel inhibitors of breast cancer relevant kinases Brk and HER2” (Medchemcomm, 2014)
# Calls of active or inactive are those of the source. No cut-off for these calls is given here.
# System: MDA-MB-468
# Assay: Antiproliferative activity against human MDA-MB-468 cells by SRB assay
# Assay type: functional
row,SMILES,GI50
1,Oc1cccc(Nc2ccnc3[nH]c4ccc(Br)cc4c23)c1,1.35 µM
2,Oc1cccc(Nc2ccnc3[nH]c4ccccc4c23)c1,1 µM

# System: MCF7
# Assay: Antiproliferative activity against human MCF7 cells by SRB assay
# Assay type: functional
row,SMILES,GI50
1,Oc1cccc(Nc2ccnc3[nH]c4ccc(Br)cc4c23)c1,0.44 µM
2,Oc1cccc(Nc2ccnc3[nH]c4ccccc4c23)c1,0.89 µM

# Molecular target: T1, Protein-tyrosine kinase 6 (Homo sapiens, UniProt Q13882)
# Assay: Inhibition of BRK in human T47D cells assessed as phosphorylation of STAT3 at >100 nM by Western blot analysis
# Assay type: cell-based
# Target sequence in this assay (Q13882 whole entry, looked up): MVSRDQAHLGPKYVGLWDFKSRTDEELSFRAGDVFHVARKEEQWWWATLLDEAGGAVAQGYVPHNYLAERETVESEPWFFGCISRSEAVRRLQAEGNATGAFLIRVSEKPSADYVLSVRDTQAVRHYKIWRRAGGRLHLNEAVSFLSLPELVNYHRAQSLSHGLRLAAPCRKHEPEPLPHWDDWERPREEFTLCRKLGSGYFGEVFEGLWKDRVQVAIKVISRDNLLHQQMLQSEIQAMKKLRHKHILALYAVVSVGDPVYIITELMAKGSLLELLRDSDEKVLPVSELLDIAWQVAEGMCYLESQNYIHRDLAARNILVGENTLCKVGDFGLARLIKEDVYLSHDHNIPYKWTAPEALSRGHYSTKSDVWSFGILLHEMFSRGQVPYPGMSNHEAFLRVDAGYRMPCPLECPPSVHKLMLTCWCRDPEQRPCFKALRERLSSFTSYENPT
row,SMILES,inhibition
1,Oc1cccc(Nc2ccnc3[nH]c4ccccc4c23)c1,Active

# Molecular target: T2, Aurora kinase C (Homo sapiens, UniProt Q9UQB9)
# T2 sequence (Q9UQB9 whole entry): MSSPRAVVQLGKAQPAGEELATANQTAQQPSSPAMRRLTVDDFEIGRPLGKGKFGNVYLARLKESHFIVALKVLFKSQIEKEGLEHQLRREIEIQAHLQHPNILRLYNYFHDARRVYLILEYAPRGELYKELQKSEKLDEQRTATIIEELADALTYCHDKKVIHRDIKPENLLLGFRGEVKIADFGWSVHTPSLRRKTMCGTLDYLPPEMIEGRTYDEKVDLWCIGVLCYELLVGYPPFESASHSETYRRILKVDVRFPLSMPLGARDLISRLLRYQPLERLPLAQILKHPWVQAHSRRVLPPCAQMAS
# Assay: Inhibition of aurora-C (unknown origin) using tetra(LRRWSLG) as substrate after 60 mins by scintillation counting
row,SMILES,IC50
1,Oc1cccc(Nc2ccnc3[nH]c4ccccc4c23)c1,0.259 µM

# Molecular target: T3, Aurora kinase A (Homo sapiens, UniProt O14965)
# T3 sequence (O14965 whole entry): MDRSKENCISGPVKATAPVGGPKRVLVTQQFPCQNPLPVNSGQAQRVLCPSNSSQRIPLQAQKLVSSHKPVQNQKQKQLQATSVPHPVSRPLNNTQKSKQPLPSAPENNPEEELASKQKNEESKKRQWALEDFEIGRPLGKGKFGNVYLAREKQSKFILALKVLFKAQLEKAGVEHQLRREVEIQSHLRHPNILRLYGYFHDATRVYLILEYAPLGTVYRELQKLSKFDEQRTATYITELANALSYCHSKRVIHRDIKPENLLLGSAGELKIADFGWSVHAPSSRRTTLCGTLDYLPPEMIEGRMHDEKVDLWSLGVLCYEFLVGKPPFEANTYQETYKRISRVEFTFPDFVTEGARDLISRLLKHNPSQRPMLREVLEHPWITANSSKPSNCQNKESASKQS
# Assay: Inhibition of aurora-A (unknown origin) using tetra(LRRWSLG) as substrate after 60 mins by scintillation counting
row,SMILES,IC50
1,Oc1cccc(Nc2ccnc3[nH]c4ccccc4c23)c1,0.25 µM

# Molecular target: Epidermal growth factor receptor (Homo sapiens, UniProt P00533)
# Sequence (P00533 whole entry): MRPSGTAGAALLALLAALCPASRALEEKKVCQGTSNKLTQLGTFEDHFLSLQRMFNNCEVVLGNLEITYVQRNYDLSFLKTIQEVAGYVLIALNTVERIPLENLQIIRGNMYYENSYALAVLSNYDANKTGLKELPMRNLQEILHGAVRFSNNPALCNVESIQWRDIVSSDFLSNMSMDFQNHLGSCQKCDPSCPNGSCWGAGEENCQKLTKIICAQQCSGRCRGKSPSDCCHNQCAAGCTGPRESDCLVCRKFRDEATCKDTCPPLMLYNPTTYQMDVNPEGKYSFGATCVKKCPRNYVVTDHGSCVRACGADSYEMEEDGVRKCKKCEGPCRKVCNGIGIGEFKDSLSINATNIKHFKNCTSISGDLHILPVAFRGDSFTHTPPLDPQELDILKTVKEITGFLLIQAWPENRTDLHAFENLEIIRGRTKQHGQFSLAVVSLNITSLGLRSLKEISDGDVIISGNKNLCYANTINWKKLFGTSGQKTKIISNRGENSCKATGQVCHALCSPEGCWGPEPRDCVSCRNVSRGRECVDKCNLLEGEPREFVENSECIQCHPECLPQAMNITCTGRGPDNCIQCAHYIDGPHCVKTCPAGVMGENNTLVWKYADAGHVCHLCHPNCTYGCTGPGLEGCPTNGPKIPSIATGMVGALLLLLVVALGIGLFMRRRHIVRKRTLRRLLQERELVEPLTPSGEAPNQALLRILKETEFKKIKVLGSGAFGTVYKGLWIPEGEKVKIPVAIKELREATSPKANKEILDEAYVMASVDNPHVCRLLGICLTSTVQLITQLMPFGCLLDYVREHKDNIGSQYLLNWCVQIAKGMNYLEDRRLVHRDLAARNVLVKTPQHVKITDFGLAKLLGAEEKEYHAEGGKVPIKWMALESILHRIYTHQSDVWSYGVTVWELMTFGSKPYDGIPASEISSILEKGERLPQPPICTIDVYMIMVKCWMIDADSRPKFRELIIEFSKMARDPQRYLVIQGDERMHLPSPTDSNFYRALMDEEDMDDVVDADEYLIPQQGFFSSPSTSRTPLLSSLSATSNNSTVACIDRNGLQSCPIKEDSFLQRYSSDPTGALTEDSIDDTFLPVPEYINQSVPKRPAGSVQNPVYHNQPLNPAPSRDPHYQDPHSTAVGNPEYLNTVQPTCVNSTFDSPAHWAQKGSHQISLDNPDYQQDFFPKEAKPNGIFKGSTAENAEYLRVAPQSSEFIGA
# Assay: Inhibition of EGFR (unknown origin) using poly(Glu,Tyr) as substrate after 60 mins by scintillation counting
row,SMILES,IC50
1,Oc1cccc(Nc2ccnc3[nH]c4ccccc4c23)c1,0.27 µM

# Molecular target: RAC-beta serine/threonine-protein kinase (Homo sapiens) (UniProt P31751)
# Assay: Inhibition of AKT2 (unknown origin)using GSK3 (14 to 27) as substrate after 60 mins by scintillation counting
row,SMILES,inhibition
1,Oc1cccc(Nc2ccnc3[nH]c4ccccc4c23)c1,inactive

# Molecular target: RAC-alpha serine/threonine-protein kinase (Homo sapiens) (UniProt P31749)
# Assay: Inhibition of AKT1 (unknown origin) using GSK3 (14 to 27) as substrate after 60 mins by scintillation counting
row,SMILES,inhibition
1,Oc1cccc(Nc2ccnc3[nH]c4ccccc4c23)c1,inactive

# Molecular target: T4, Serine/threonine-protein kinase VRK1 (Homo sapiens) (UniProt Q99986)
# T4 sequence (whole entry): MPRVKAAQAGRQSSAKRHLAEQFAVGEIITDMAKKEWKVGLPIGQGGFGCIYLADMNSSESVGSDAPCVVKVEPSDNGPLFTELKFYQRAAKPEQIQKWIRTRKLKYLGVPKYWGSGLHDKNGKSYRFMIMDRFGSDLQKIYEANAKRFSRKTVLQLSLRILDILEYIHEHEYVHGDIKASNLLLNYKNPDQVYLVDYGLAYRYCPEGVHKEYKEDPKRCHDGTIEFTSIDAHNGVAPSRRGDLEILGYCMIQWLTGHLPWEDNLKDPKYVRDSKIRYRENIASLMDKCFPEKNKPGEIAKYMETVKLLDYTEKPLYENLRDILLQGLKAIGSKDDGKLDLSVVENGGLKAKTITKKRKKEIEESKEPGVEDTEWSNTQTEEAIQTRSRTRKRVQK
# Assay: Inhibition of VRK1 (unknown origin) using RBER-CHKtide as substrate after 60 mins by scintillation counting
row,SMILES,inhibition
1,Oc1cccc(Nc2ccnc3[nH]c4ccccc4c23)c1,inactive

# Molecular target: Serine/threonine-protein kinase PAK 1 (Homo sapiens) (UniProt Q13153)
# Sequence (Q13153 whole entry): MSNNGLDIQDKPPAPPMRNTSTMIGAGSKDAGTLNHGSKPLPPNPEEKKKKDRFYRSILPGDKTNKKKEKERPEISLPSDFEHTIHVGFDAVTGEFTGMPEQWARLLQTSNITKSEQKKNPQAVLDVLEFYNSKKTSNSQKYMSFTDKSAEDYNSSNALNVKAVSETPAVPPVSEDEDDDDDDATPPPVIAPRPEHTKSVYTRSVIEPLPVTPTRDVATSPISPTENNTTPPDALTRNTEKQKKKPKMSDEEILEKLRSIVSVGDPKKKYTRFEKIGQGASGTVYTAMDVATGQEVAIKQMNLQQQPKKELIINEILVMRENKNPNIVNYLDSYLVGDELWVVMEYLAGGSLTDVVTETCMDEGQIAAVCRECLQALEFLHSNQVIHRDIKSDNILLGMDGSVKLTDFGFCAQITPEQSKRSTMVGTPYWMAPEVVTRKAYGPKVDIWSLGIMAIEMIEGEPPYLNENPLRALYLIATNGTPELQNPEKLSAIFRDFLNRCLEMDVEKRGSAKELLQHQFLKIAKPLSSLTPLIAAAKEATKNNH
# Assay: Inhibition of PAK1 (unknown origin) using tetra(LRRWSLG) as substrate after 60 mins by scintillation counting
row,SMILES,inhibition
1,Oc1cccc(Nc2ccnc3[nH]c4ccccc4c23)c1,inactive

# Molecular target: Mitogen-activated protein kinase 10 (Homo sapiens) (UniProt P53779)
# Sequence (P53779 whole entry): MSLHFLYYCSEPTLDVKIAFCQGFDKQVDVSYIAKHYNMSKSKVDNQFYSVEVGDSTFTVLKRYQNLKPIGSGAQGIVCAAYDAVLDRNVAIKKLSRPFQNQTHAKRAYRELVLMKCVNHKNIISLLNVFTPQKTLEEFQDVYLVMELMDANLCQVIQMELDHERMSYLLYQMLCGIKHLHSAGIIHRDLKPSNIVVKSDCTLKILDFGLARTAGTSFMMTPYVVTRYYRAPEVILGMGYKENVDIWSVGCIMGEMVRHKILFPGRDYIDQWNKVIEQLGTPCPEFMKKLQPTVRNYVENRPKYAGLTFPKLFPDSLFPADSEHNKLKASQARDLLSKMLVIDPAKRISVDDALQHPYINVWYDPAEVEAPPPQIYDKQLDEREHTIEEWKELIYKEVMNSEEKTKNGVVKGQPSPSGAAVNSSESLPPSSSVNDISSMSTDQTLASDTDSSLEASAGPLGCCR
# Assay: Inhibition of JNK3 (unknown origin) using ATF2 as substrate after 60 mins by scintillation counting
row,SMILES,inhibition
1,Oc1cccc(Nc2ccnc3[nH]c4ccccc4c23)c1,inactive

# Molecular target: Mitogen-activated protein kinase 8 (Homo sapiens) (UniProt P45983)
# Sequence (P45983 whole entry): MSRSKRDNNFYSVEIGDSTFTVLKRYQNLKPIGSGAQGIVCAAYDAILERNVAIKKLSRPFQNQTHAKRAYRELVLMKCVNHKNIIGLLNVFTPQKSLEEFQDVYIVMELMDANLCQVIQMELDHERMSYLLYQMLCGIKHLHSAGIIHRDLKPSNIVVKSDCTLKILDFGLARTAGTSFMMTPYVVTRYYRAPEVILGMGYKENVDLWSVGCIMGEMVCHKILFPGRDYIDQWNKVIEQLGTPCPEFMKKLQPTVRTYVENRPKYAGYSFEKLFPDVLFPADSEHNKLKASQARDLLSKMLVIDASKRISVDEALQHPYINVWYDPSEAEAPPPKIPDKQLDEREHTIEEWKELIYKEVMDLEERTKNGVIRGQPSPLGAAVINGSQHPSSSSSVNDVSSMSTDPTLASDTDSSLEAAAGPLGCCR
# Assay: Inhibition of JNK1 (unknown origin) using ATF2 as substrate after 60 mins by scintillation counting
row,SMILES,inhibition
1,Oc1cccc(Nc2ccnc3[nH]c4ccccc4c23)c1,inactive

# Molecular target: Mitogen-activated protein kinase 1 (Homo sapiens) (UniProt P28482)
# Sequence (P28482 whole entry): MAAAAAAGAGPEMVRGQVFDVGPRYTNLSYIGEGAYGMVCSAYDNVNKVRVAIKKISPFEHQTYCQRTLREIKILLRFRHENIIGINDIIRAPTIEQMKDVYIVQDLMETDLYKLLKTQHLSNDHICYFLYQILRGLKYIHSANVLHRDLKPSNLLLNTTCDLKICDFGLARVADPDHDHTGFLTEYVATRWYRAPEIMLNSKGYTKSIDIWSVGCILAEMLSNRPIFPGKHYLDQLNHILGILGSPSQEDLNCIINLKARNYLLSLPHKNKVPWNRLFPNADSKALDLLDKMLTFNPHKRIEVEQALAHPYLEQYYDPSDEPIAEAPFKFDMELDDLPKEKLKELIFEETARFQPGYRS
# Assay: Inhibition of ERK2 (unknown origin) using RBER-CHKtide as substrate after 60 mins by scintillation counting
row,SMILES,inhibition
1,Oc1cccc(Nc2ccnc3[nH]c4ccccc4c23)c1,inactive

# Molecular target: Receptor tyrosine-protein kinase erbB-2 (Homo sapiens, UniProt P04626)
# Sequence (P04626 whole entry, the tested form may be a part): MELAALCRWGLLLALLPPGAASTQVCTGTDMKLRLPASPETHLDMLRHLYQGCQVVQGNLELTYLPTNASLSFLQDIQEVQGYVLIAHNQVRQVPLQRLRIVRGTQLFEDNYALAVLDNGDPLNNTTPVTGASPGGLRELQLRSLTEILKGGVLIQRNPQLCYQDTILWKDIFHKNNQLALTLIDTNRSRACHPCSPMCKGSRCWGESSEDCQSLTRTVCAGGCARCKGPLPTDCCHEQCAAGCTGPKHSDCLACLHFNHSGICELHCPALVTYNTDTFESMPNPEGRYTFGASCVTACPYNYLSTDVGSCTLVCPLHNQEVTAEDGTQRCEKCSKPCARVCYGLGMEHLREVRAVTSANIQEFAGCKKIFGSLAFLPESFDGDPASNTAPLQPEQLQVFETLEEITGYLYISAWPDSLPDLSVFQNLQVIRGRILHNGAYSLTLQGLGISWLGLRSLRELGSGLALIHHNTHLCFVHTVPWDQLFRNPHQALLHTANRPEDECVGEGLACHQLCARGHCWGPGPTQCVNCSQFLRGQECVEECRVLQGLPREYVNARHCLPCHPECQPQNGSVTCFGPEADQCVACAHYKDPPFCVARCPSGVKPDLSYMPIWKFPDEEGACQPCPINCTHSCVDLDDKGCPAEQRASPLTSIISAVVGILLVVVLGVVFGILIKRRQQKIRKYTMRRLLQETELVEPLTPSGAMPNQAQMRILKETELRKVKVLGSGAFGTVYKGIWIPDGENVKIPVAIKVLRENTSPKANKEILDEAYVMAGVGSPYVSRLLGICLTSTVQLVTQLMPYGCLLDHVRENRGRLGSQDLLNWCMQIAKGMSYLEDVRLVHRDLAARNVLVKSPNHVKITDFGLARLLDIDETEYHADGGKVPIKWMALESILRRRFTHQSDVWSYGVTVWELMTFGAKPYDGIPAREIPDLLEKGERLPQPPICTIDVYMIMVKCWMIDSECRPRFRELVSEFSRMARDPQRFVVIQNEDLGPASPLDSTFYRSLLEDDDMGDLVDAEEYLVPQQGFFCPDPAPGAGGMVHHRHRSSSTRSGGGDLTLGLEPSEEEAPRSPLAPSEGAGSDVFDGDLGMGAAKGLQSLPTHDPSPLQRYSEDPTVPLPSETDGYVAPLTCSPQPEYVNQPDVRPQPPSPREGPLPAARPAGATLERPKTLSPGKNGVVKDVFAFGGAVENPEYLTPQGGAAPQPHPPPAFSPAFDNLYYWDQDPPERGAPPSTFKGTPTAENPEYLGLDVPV
# Assay: Inhibition of human recombinant GST-fused HER2 expressed in baculovirus Sf9 insect cells using poly(Glu,Tyr) as substrate after 60 mins by scintillation counting
row,SMILES,IC50
1,CC(=O)c1ccc2[nH]c3nccc(Nc4cccc(O)c4)c3c2c1,0.013 µM
2,CC(=O)c1ccc2[nH]c3nccc(Nc4cccc(Cl)c4)c3c2c1,1.15 µM
3,Clc1ccc(Nc2ccnc3[nH]c4ccccc4c23)cc1,0.31 µM
4,Oc1cccc(Nc2ccnc3[nH]c4ccccc4c23)c1,1.3 µM
5,CC(=O)c1ccc2[nH]c3nccc(Nc4cccc(N)c4)c3c2c1,1.64 µM
6,Clc1cccc(Nc2ccnc3[nH]c4ccccc4c23)c1,0.066 µM
7,Cc1ccccc1Nc1ccnc2[nH]c3ccccc3c12,0.978 µM
8,CC(=O)c1ccc2[nH]c3nccc(Nc4cccc([N+](=O)[O-])c4)c3c2c1,0.978 µM
9,O=S(=O)(c1ccc2[nH]c3nccc(Nc4cccc(O)c4)c3c2c1)N1CCN(CCO)CC1,0.376 µM

# More lines, now with the values ahead:
row,IC50,SMILES
1,0.39 µM,COc1cccc(Nc2ccnc3[nH]c4ccc(S(=O)(=O)N5CCNCC5)cc4c23)c1
2,0.689 µM,COc1cccc(Nc2ccnc3[nH]c4ccc(S(=O)(=O)N5CCN(CCO)CC5)cc4c23)c1
3,1.24 µM,COc1cccc(Nc2ccnc3[nH]c4ccc(S(=O)(=O)N5CCOCC5)cc4c23)c1
4,54.8 µM,CCOc1cccc(Nc2ccnc3[nH]c4ccc(S(=O)(=O)N5CCOCC5)cc4c23)c1
5,0.298 µM,O=S(=O)(c1ccc2[nH]c3nccc(Nc4cccc(O)c4)c3c2c1)N1CCOCC1
6,0.576 µM,CCOc1cccc(Nc2ccnc3[nH]c4ccc(S(=O)(=O)N5CCNCC5)cc4c23)c1
7,6.53 µM,CCOc1cccc(Nc2ccnc3[nH]c4ccc(S(=O)(=O)N5CCN(CCO)CC5)cc4c23)c1
8,28.3 µM,O=S(=O)(c1ccc2[nH]c3nccc(Nc4cccc(OCc5ccccc5)c4)c3c2c1)N1CCOCC1

# Molecular target: T1, Protein-tyrosine kinase 6
# Assay: Inhibition of human recombinant GST-fused Brk expressed in baculovirus Sf9 insect cells using poly(Glu,Tyr) as substrate after 60 mins by scintillation counting
# Target sequence in this assay (Q13882 whole entry): as the sequence (Q13882 whole entry, looked up) above
row,SMILES,IC50
1,CC(=O)c1ccc2[nH]c3nccc(Nc4cccc(O)c4)c3c2c1,> 1000 µM
2,CC(=O)c1ccc2[nH]c3nccc(Nc4cccc(Cl)c4)c3c2c1,0.013 µM
3,Clc1ccc(Nc2ccnc3[nH]c4ccccc4c23)cc1,> 1000 µM
4,CC(=O)c1ccc2[nH]c3nccc(Nc4cccc(N)c4)c3c2c1,0.0076 µM
5,Cc1ccccc1Nc1ccnc2[nH]c3ccccc3c12,> 1000 µM
6,CC(=O)c1ccc2[nH]c3nccc(Nc4cccc([N+](=O)[O-])c4)c3c2c1,0.021 µM
7,O=S(=O)(c1ccc2[nH]c3nccc(Nc4cccc(O)c4)c3c2c1)N1CCN(CCO)CC1,> 1000 µM

# The remaining lines, values ahead:
row,IC50,SMILES
1,0.0048 µM,COc1cccc(Nc2ccnc3[nH]c4ccc(S(=O)(=O)N5CCNCC5)cc4c23)c1
2,0.0092 µM,COc1cccc(Nc2ccnc3[nH]c4ccc(S(=O)(=O)N5CCN(CCO)CC5)cc4c23)c1
3,0.0057 µM,COc1cccc(Nc2ccnc3[nH]c4ccc(S(=O)(=O)N5CCOCC5)cc4c23)c1
4,0.41 µM,CCOc1cccc(Nc2ccnc3[nH]c4ccc(S(=O)(=O)N5CCOCC5)cc4c23)c1
5,> 1000 µM,O=S(=O)(c1ccc2[nH]c3nccc(Nc4cccc(O)c4)c3c2c1)N1CCOCC1
6,0.026 µM,CCOc1cccc(Nc2ccnc3[nH]c4ccc(S(=O)(=O)N5CCNCC5)cc4c23)c1
7,0.479 µM,CCOc1cccc(Nc2ccnc3[nH]c4ccc(S(=O)(=O)N5CCN(CCO)CC5)cc4c23)c1
8,0.055 µM,O=S(=O)(c1ccc2[nH]c3nccc(Nc4cccc(OCc5ccccc5)c4)c3c2c1)N1CCOCC1
